Earlier results as cited in patent US20040142353A1, “Compositions and methods for identifying plants having increased tolerance to imidazolinone herbicides” (priority 2002, published 2004).
Like-named read-outs stand apart in the source and are kept apart here.

Key:
[1] = system: B. napus mutants P1 and P2; settings: B. napus (cv 'Topas') mutants P1 and P2
[2] = system: B. napus P1, P2, and P1×P2 hybrid; settings: field trials

## CCc1cnc(C2=NC(C)(C(C)C)C(=O)N2)c(C(=O)O)c1 (centres unmarked) [PURSUIT®, 2-[4,5-dihydro-4-methyl-4-(1-methylethyl)-5-oxo-1H-imidazol-2-yl]-5-ethyl-3-pyridinecarboxylic acid]
AHAS enzyme; AHAS enzyme of homozygous P1 mutant vs wild type enzyme
  tolerance of mutant AHAS enzyme relative to wild type enzyme: only slightly more tolerant
AHAS enzyme; AHAS enzyme of homozygous P2 mutant vs wild type enzyme
  tolerance of mutant AHAS enzyme relative to wild type enzyme: 500 times
[1]
  level of herbicide tolerated by mutant plants: approaching ten times the field-recommended rates

## methyl esters of 2-[4,5-dihydro-4-methyl-4-(1-methylethyl)-5-oxo-1H-imidazol-2-yl]-4-methylbenzoic acid and 2-[4,5-dihydro-4-methyl-4-(1-methylethyl)-5-oxo-1H-imidazol-2-yl]-5-methylbenzoic acid [ASSERT®]
[1]
  level of herbicide tolerated by mutant plants: approaching ten times the field-recommended rates
[2]
  application rate withstood with no loss of yield: up to 800 g/ha
